Source: patent US20060281670A1, “Compositions and methods for modulating angiogenesis” (Wisconsin Alumni Research Foundation (WARF), priority 2005, published 2006)
Values belong to the molecule of their own block, whether it stands above or below them.

Key:
[1] = system: chorioallantoic membrane (CAM); experiment: Chick chorioallantoic membrane assay; format: in vivo, chicken; settings: L733060 5 μM, SB222200 2 μM, alone or combined; day 7 embryos, 48 h
Procedure: Fertilized chicken eggs were incubated at 39° C. with 90% humidity. On embryonic day 7, a small hole was drilled at the end of the egg that contains the air sac to lower the embryo. A second hole was made above the chorioallantoic membrane (CAM), and 100 μl of a 1.5% solution of methylcellulose (Stem Cell Technologies, Vancouver, BC) containing either FGF2 (500 ng) or VEGF (200 ng) and vehicle, IBMX (100 μg), NK-B (40 μg)/IBMX, or mutant NK-B (40 μg)/IBMX were applied to the CAM. A solution of penicillin/streptomycin was added, and the eggs were sealed with transparent tape. Vasculature was analyzed after 48 h, and digital images were captured at 40× magnification.

[2] = system: Yolk sac endothelial cells (YSECs); settings: for rescue of tube formation in IBMX+NK-B treated cells: 100 ng/ml mouse VEGF164 or 30 ng/ml mouse bFGF
Procedure: (§1) Vascular network assembly was assessed by measuring the formation of capillary-like structures by endothelial cells on Matrigel (BD Biosciences, San Jose, Calif.). Matrigel was diluted 1:1 with supplement-free M200 medium, poured in 24-well plates, and allowed to solidify at 37° C. Subconfluent endothelial cells were harvested and preincubated under different experimental conditions (YSECs, 1 h; HUVECs, HAECs, and human microvascular endothelial cells (HMVECs), 2 h in supplement-free M200 medium in microfuge tubes. An equal volume of supplemented medium containing the indicated reagents was added. Cells were plated on Matrigel (1.5×10^5 cells/well) and incubated at 37° C. Vascular network assembly was measured as a function of time, and digital pictures were captured.

[3] = system: Flt-1 and Flk-1 (VEGF receptors) in YSECs; experiment: Gene expression analysis by real-time RT-PCR; format: cell-based, mouse; settings: for rescue of Flt-1 and Flk-1 expression and cell signaling: NK-B/IBMX-treated YSECs, growth factor 100 ng/ml
Procedure: Real-time RT-PCR was conducted Total RNA was purified with Trizol (Invitrogen). cDNA was prepared by annealing RNA (1 μg) with 250 ng of a 1:5 mixture of random and oligo(dT) primers (Promega) at 68° C. for 10 min, followed by incubation with Moloney Murine Leukemia Virus reverse transcriptase (Invitrogen) with 10 mM dithiothreitol, RNasin (Promega), and 0.5 mM dNTPs at 42° C. for 1 h. Reactions were diluted to a final volume of 100 μl and subjected to heat-inactivation at 98° C. for 10 min. Reactions (25 μl) contained 2.5 μl of cDNA, 12.5 μl of SYBR Green Master Mix (Applied Biosystems), and appropriate primers. Product accumulation was monitored by SYBR Green fluorescence. Control reactions lacking RT yielded little or no signals. The relative expression levels were determined from a standard curve of serial dilutions of cDNA samples from untreated control cells, and measurements were conducted under conditions of linearity.
Real time RT-PCR primers were designed using PRIMER EXPRESS 1.0 (PE Applied Biosystems) to amplify 50-150 bp amplicons and were based on GenBank Ensembl sequences.

calreticulin in YSECs = experiment: Calreticulin 2D gel electrophoresis and Western blot; format: cell-based, mouse; settings: 2 μM ionomycin, 1 h, supplement-free M200 medium
Procedure: […] Cells were processed and proteins analyzed as described above in Example 2.
Cells were harvested, washed twice with ice-cold PBS, and lysed in lysis buffer containing 10 mM Tris (pH 7.4), 0.3% SDS, 100 μg/mL Ribonuclease A (Sigma), 200 μg/mL DNase I (Sigma), 20 μg/mL leupeptin (Sigma), 6 μg/mL E-64 (Sigma), 1 mM EDTA (Calbiochem), and 100 μg/mL benzamidine (Sigma). Cells were incubated on ice for 30 min, an equal volume of loading buffer containing 60 mM Tris (pH 6.8), 5% SDS, 10% glycerol was added, and samples were boiled for 5 min. 2D gel electrophoresis was conducted using pH 3.5-10 ampholines, and proteins were detected by Coomassie Blue staining. […]
The following antibodies were used for Western blots: Anti-phospho-FAK (Tyr-397) (Biosource, 44-624G); anti-FAK, anti-phospho-Akt (Ser 473), anti-Akt, anti-phospho-p44/42 MAP kinase (Thr 202/Tyr 204), anti-p44/42 MAP kinase antibodies (Cell Signaling Technology); anti-calreticulin (Upstate, 06-661); anti-α-tubulin (Calbiochem); anti Flt-1 (Santa Cruz Biotech, C-17); anti-Flk-1 (Cell Signaling Technologies, 2479). […] Extracts were resolved on SDS polyacrylamide gels, transferred to Immobilon P membranes (Millipore, Billerica, Mass.), and analyzed by Western blotting. Proteins were detected by chemiluminescence using ECL-Plus (Amersham Biosciences Piscataway, N.J.).

YSECs [4] = experiment: Calcium imaging (Ca+2 oscillations); format: cell-based, mouse; settings: YSECs on Matrigel, supplemented medium
Procedure: Cells were incubated for ˜30 min in 4 μM fluo-4/AM (Molecular Probes, Carlsbad, Calif.) in supplement-free M200 medium at 37° C., trypsinized, plated on Matrigel with indicated reagents, and allowed to adhere for 10 min. Time-lapse video microscopy with an Olympus AX70 laser scanning confocal microscope was used to measure intracellular Ca^+2 as described previously (Robles et al., 2003). An argon laser at 488 nm was used to excite Fluo-4, and the emitted light was detected at wavelengths>510 nm. Images were acquired at 15 s intervals and analyzed using Image J (Image Processing and Analysis in JAVA, Nat'l Inst. Health). When indicated, the fluorescence intensity in the region of interest (F) was normalized by dividing the Ca+2 signal by the fluorescence intensity of the resting cell at time 0 (F0).

[5] = system: human aortic endothelial cells (HAECs); experiment: Vascular network assembly assay on Matrigel; format: cell-based; settings: NK-B, U46619 (2 μM) or both, 2 h, 16 h on Matrigel
Procedure: as §1

YSECs [6] = experiment: cAMP assay; format: cell-based, mouse; settings: supplement-free M200 medium
Procedure: Cells were cultured in 6-well plates (2×10^5 cells/well), washed with supplement-free M200 medium and treated with indicated reagents at 37° C. The reactions were terminated by aspiration of the medium. Cells were washed with PBS and lysed in 500 μl of 0.1 N HCl containing 0.5% Triton X-100. cAMP was assayed in cell lysates (100 μl) using a direct cAMP enzyme-linked immunosorbent assay (Assay Designs, Inc., Ann Arbor, Mich.).

HUVECs = experiment: Vascular network assembly assay on Matrigel; format: cell-based, human
Procedure: as §1

Molecule: CC[C@H](NC(=O)c1c(C)c(-c2ccccc2)nc2ccccc12)c1ccccc1 [SB222200, (S)-3 methyl-2-phenyl-N-(1-phenylpropyl)-4-quinilinecarboxamide]
- microvessel density of CAM [1]: much higher

Molecule: CC(C)Cn1c(=O)n(C)c(=O)c2[nH]cnc21 [IBMX, 3-Isobutyl-1-methylxanthine]
- vascular network assembly (capillary like tube formation) ([2]; 250 μM IBMX, 10 μM forskolin, 100 μM NK-B, 20 h, 3 experiments): has little effect on vascular network assembly

- FGFR1 transcription ([3]; YSECs, 100 ng/ml FGF2 with or without NK-B): increased
Molecule: FGF2: fibroblast growth factor-2 (bovine FGF2 from R & D systems; also called mouse FGF2/bFGF)
- rescue of tube formation in IBMX+NK-B treated cells [2]: but not bFGF Rescues the NK-B Effect
- rescue of Flt-1 and Flk-1 expression and cell signaling [3]: but not FGF2, rescues Flt-1 and Flk-1 expression and cell signaling

Molecule: C[C@H](CCC(=O)O)C[C@H](C)C[C@H](C)C(=O)/C=C(\O)[C@H](C)C[C@H](C)C/C=C/[C@@H](C)[C@@H](O)[C@@H](C)[C@@H](O)C[C@@H]1CC[C@@](C)([C@H]2CC[C@@](C)([C@@H](C)O)O2)O1 [ionomycin]
- calreticulin/alpha-tubulin ratio increase (calreticulin in YSECs): ~2 fold

Molecule: Cl.FC(F)(F)c1cc(CO[C@H]2CCCN[C@H]2c2ccccc2)cc(C(F)(F)F)c1 [L733060]
- microvessel density of CAM [1]: much higher

Molecule: CCCCC[C@H](O)/C=C/[C@@H]1[C@@H](C/C=C\CCCC(=O)O)[C@H]2CO[C@@H]1C2 [U46619]
- vascular network assembly ([2]; NK-B, U46619 (2 μM) or both, 1 h, 16 h on Matrigel): had little effect
- Ca+2 oscillations (YSECs [4]): decreasing the amount of Ca^2+ oscillations
- vascular network assembly [5]: had little effect
- cAMP (YSECs [6]): decrease the amount of cAMP
- vascular network assembly (HUVECs; NK-B, U46619 (2 μM) or both, 2 h, 16 h on Matrigel): had little effect

Molecule: VEGF
- rescue of tube formation in IBMX+NK-B treated cells [2]: can form capillary-like tubes but in a slower kinetics
- rescue of Flt-1 and Flk-1 expression and cell signaling [3]: rescues Flt-1 and Flk-1 expression and cell signaling

B1: calreticulin: E. coli overexpressed and purified recombinant calreticulin, anti-angiogenic protein (protein, UniProt P27797 18-417, looked up)
Calreticulin: EPAVYFKEQFLDGDGWTSRWIESKHKSDFGKFVLSSGKFYGDEEKDKGLQTSQDARFYALSASFEPFSNKGQTLVVQFTVKHEQNIDCGGGYVKLFPNSLDQTDMHGDSEYNIMFGPDICGPGTKKVHVIFNYKGKNVLINKDIRCKDDEFTHLYTLIVRPDNTYEVKIDNSQVESGSLEDDWDFLPPKKIKDPDASKPEDWDERAKIDDPTDSKPEDWDKPEHIPDPDAKKPEDWDEEMDGEWEPPVIQNPEYKGEWKPRQIDNPDYKGTWIHPEIDNPEYSPDPSIYAYDNFGVLGLDLWQVKSGTIFDNFLITNDEAYAEEFGNETWGVTKAAEKQMKDKQDEEQRLKEEEEDKKRKEEEEAEDKEDDEDKDEDEEDEEDKEEDEEEDVPGQAKDEL
- vascular network assembly (HUVECs; calreticulin 13 μg/ml, vasostatin 5 μg/ml, 1 h): inhibit YSEC and HUVEC vascular network assembly
- Flt-1 and Flk-1 transcription ([3]; YSECs, forskolin (10 μM)/IBMX, calreticulin (13 μg/ml), vasostatin (5 μg/ml), 1, 2 or 5 h on Matrigel): failed to affect Flt-1 and Flk-1 transcription
